Holding throughout (type): cell-based, murine
For assay [1], the system named is P388/MET. Kind of assay: Growth rate of P388/MET resistant cells. The following applies: P388/MET grown in the presence of 10^−8 drug, no lipid treatment. How it is done:
(§1) P388/MET and P388/DOX resistant cell lines were developed as described in Example 7 above. Non-treated P388 cells and resistant cell lines of these cells were grown in the presence and absence of 10^−8M of MET or DOX as indicated in Table 5 below.

The test system of assay [2] is P388/DOX. The experiment in a line: Growth rate of P388/DOX resistant cells. The following applies: P388/DOX grown in the presence of 10^−8 drug, no lipid treatment. How it is done: as §1
For assay [3], the system named is P388 (unadapted). Kind of assay: Growth rate of unadapted P388 cells. The following applies: unadapted P388 grown in the presence of 10^−8M drug; relative to unadapted P388 = 100. The protocol: as §1

With `CN(Cc1cnc2nc(N)nc(N)c2n1)c1ccc(C(=O)N[C@@H](CCC(=O)O)C(=O)O)cc1` [MET, methotroxeate], the results for the relative growth rate in assay [1], in assay [2] and in assay [3] were 95 ± 5, 93 ± 5 and 10 ± 5, respectively.

With `COc1cccc2c1C(=O)c1c(O)c3c(c(O)c1C2=O)C[C@@](O)(C(=O)CO)C[C@@H]3O[C@H]1C[C@H](N)[C@H](O)[C@H](C)O1` [DOX, doxorubicine], the relative growth rate in assay [1] is reported as 95 ± 5; in assay [2], 95 ± 5; in assay [3], 10 ± 5.

The values are drawn from US6358937B1, “Method for the treatment of cancer using phosphatidic acid-comprising compositions” (Modus Biological Membranes Ltd., priority 1996, dated 2002).
